Molecular target: T1, human GLP-1 receptor (Homo sapiens, UniProt P43220)
T1 construct: expressed in transfected cells
Experiment: GLP-1R cAMP Assay
Type: cell-based
Conditions: cAMP accumulation in CHO cells stably overexpressing the human GLP-1 receptor; 30 min treatment; HitHunter cAMP kit; read-out: EC50
Description: cAMP accumulation was measured in Chinese hamster ovary (CHO) cells stably overexpressing the human GLP-1 receptor using the HitHunter cAMP Assay for Small Molecules Kit (Eurofins). Briefly, cells were grown in Ham's F12 Nutrient Mix with 10% FBS, and lifted with Cell Dissociation Buffer, Enzyme free, PBS based (ThermoFisher). […] The anti-cAMP antibody reagent was then added to cells at a 1:2 ratio and 5 μL of mixture was seeded in 384-well small volume white assay plates, at 10,000 cells/well. Cells were then treated with 50 nL compound using an ECHO 550 acoustic dispenser (Labcyte) in a 20-point dose response format in triplicate for 30 min. Cells were then lysed, and detection reagents added according to the manufacturer's protocol. After overnight incubation, luminescence was measured using a Perkin Elmer Envision plate reader. Dose response curves were analyzed using GraphPad Prism 9.0.

T1 sequence (P43220 24-463): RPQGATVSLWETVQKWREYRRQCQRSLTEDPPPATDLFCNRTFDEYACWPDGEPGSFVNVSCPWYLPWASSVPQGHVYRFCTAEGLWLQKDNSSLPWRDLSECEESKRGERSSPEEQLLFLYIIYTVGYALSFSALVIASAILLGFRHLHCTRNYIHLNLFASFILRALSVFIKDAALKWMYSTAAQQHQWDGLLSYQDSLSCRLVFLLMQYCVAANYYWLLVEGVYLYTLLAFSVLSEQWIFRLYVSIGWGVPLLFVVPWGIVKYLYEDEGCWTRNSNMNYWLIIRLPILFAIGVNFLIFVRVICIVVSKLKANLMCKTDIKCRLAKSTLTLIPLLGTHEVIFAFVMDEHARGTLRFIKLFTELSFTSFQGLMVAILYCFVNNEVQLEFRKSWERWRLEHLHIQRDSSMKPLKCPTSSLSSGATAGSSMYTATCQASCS

| SMILES | EC50 |
| --- | --- |
| Cc1ccc(N(C)Cc2cccc(C(=O)N3CCN(Cc4nc5ccc(C(=O)O)cc5n4C[C@@H]4CCO4)CC3)c2)c(Cl)c1 [Example 78, (S)-2-((4-(3-(((2-Chloro-4-methylphenyl)(methyl)amino)methyl)benzoyl)piperazin-1-yl)methyl)-1-(oxetan-2-ylmethyl)-1H-benzo[d]imidazole-6-carboxylic acid] | > 500 nM |
| COc1ccc(Oc2cccc(C(=O)N3CCN(Cc4nc5ccc(C(=O)O)cc5n4C[C@@H]4CCO4)CC3)c2)cc1 [Compound 6, 2-({4-[3-(4-methoxyphenoxy)benzoyl]piperazin-1-yl}methyl)-1-{[(2S)-oxetan-2-yl]methyl}-1H-1,3-benzodiazole-6-carboxylic acid] | > 500 nM |
| O=C(O)c1ccc2nc(CN3CCN(C(=O)c4cccc(Oc5ccc(C(F)(F)F)cc5Cl)c4)CC3)n(C[C@@H]3CCO3)c2c1 [Example 2, (S)-2-((4-(3-(2-Chloro-4-(trifluoromethyl)phenoxy)benzoyl)piperazin-1-yl)methyl)-1-(oxetan-2-ylmethyl)-1H-benzo[d]imidazole-6-carboxylic acid] | > 500 nM |
| CCn1cncc1Cn1c(CN2CCN(C(=O)c3cccc(COc4ccc(C#N)cc4F)c3)CC2)nc2ccc(C(=O)O)cc21 [Compound 69, 2-[(4-{3-[(4-cyano-2-fluorophenoxy)methyl]benzoyl}piperazin-1-yl)methyl]-1-[(1-ethyl-1H-imidazol-5-yl)methyl]-1H-1,3-benzodiazole-6-carboxylic acid] | > 500 nM |
| O=C(O)c1ccc2nc(CN3CCN(C(=O)c4cccc(Cc5ccc(F)cc5)c4)CC3)n(C[C@@H]3CCO3)c2c1 [Compound 3, 2-[(4-{3-[(4-fluorophenyl)methyl]benzoyl}piperazin-1-yl)methyl]-1-{[(2S)-oxetan-2-yl]methyl}-1H-1,3-benzodiazole-6-carboxylic acid] | > 500 nM |
| Cc1ccc(N(C)c2ccc(C3CC3)c(C(=O)N3CCN(Cc4nc5ccc(C(=O)O)cc5n4C[C@@H]4CCO4)CC3)c2)c(Cl)c1 [Compound 93, 2-[(4-{5-[(2-chloro-4-methylphenyl)(methyl)amino]-2-cyclopropylbenzoyl}piperazin-1-yl)methyl]-1-{[(2S)-oxetan-2-yl]methyl}-1H-1,3-benzodiazole-6-carboxylic acid] | 50 to 500 nM |
| CCn1cncc1Cn1c(CN2CCN(C(=O)c3cnc(COc4ccc(C5CC5)cc4Cl)o3)CC2)nc2ccc(C(=O)O)cc21 [Compound 160, 2-[(4-{2-[(2-chloro-4-cyclopropylphenoxy)methyl]-1,3-oxazole-5-carbonyl}piperazin-1-yl)methyl]-1-[(1-ethyl-1H-imidazol-5-yl)methyl]-1H-1,3-benzodiazole-6-carboxylic acid] | < 50 nM |
| C[C@H](Oc1ccc(Cl)cc1Cl)c1ccc(C(=O)N2CCN(Cc3nc4ccc(C(=O)O)cc4n3C[C@@H]3CCO3)CC2)o1 (single isomer, unassigned) [Example 96] | > 500 nM |
| N#Cc1ccc(COc2cccc(C3CCN(C(=O)c4ccc(-c5nnn[nH]5)cn4)CC3)n2)c(F)c1 [Compound 82, 3-fluoro-4-{[(6-{1-[5-(1H-1,2,3,4-tetrazol-5-yl)pyridine-2-carbonyl]piperidin-4-yl}pyridin-2-yl)oxy]methyl}benzonitrile] | > 500 nM |
| Cc1ccc(N(C)c2ccc(C)c(C(=O)N3CCN(Cc4nc5ccc(C(=O)O)cc5n4C[C@@H]4CCO4)CC3)c2)c(Cl)c1 [Compound 75, 2-[(4-{5-[(2-chloro-4-methylphenyl)(methyl)amino]-2-methylbenzoyl}piperazin-1-yl)methyl]-1-{[(2S)-oxetan-2-yl]methyl}-1H-1,3-benzodiazole-6-carboxylic acid] | < 50 nM |
| Cc1ccc(OCc2cccc(CC3CCN(Cc4nc5ccc(C(=O)O)cc5n4C[C@@H]4CCO4)CC3)n2)c(C#N)c1 [Example 114, (S)-2-((4-((6-((2-Cyano-4-methylphenoxy)methyl)pyridin-2-yl)methyl)piperidin-1-yl)methyl)-1-(oxetan-2-ylmethyl)-1H-benzo[d]imidazole-6-carboxylic acid] | < 50 nM |
| O=C(O)c1ccc2nc(CN3CCN(C(=O)c4ccc(COc5ccccc5)o4)CC3)n(C[C@@H]3CCO3)c2c1 [Compound 30, 1-{[(2S)-oxetan-2-yl]methyl}-2-({4-[5-(phenoxymethyl)furan-2-carbonyl]piperazin-1-yl}methyl)-1H-1,3-benzodiazole-6-carboxylic acid] | > 500 nM |

Further lines, results first:

| EC50 | SMILES |
| --- | --- |
| < 50 nM | C[C@H]1C[C@@H](Oc2ccnc(COc3ccc(F)cc3F)n2)CCN1Cc1nc2ccc(C(=O)O)cc2n1C[C@@H]1CCO1 [Compound 485, 2-{[(2S,4S)-4-({2-[(2,4-difluorophenoxy)methyl]pyrimidin-4-yl}oxy)-2-methylpiperidin-1-yl]methyl}-1-{[(2S)-oxetan-2-yl]methyl}-1H-1,3-benzodiazole-6-carboxylic acid] |
| < 50 nM | COC1(Cn2c(CN3CCC(Oc4ccnc(COc5ccc(Cl)cc5F)c4)CC3)nc3ccc(C(=O)O)cc32)CC1 [Example 368, 2-((4-((2-((4-Chloro-2-fluorophenoxy)methyl)pyridin-4-yl)oxy)piperidin-1-yl)methyl)-1-((1-methoxycyclopropyl)methyl)-1H-benzo[d]imidazole-6-carboxylic acid] |
| < 50 nM | CCn1cncc1Cn1c(CN2CCC(C#N)(Cc3ccnc(COc4ccc(Cl)cc4Cl)c3)CC2)nc2ccc(C(=O)O)cc21 [Example 189, 2-((4-Cyano-4-((2-((2,4-dichlorophenoxy)methyl)pyridin-4-yl)methyl)piperidin-1-yl)methyl)-1-((1-ethyl-1H-imidazol-5-yl)methyl)-1H-benzo[d]imidazole-6-carboxylic acid] |
| < 50 nM | O=C(O)c1ccc2nc(CN3CCC(Oc4ccnc(COc5ccc(F)cc5Cl)c4)CC3)n(C[C@@H]3CCO3)c2c1 [Example 220, (S)-2-((4-((2-((2-Chloro-4-fluorophenoxy)methyl)pyridin-4-yl)oxy)piperidin-1-yl)methyl)-1-(oxetan-2-ylmethyl)-1H-benzo[d]imidazole-6-carboxylic acid] |
| < 50 nM | C[C@H]1C[C@@H](Oc2ccnc(COc3ccc(C#N)cc3F)n2)CCN1Cc1nc2ccc(C(=O)O)cc2n1C[C@H]1CCOC1 [Compound 515, 2-{[(2S,4S)-4-({2-[(4-cyano-2-fluorophenoxy)methyl]pyrimidin-4-yl}oxy)-2-methylpiperidin-1-yl]methyl}-1-{[(3R)-oxolan-3-yl]methyl}-1H-1,3-benzodiazole-6-carboxylic acid] |
| < 50 nM | O=C(O)c1ccc2nc(CN3CCC(Cc4cnc(COc5ccc(Cl)cc5Cl)o4)CC3)n(C[C@@H]3CCO3)c2c1 [Example 60, (S)-2-((4-((2-((2,4-Dichlorophenoxy)methyl)oxazol-5-yl)methyl)piperidin-1-yl)methyl)-1-(oxetan-2-ylmethyl)-1H-benzo[d]imidazole-6-carboxylic acid] |
| < 50 nM | CCn1cncc1Cn1c(CN2CCC(Oc3cccc(COc4ccc(Cl)cc4F)n3)CC2)nc2ccc(C(=O)O)cc21 [Compound 247, 2-{[4-({6-[(4-chloro-2-fluorophenoxy)methyl]pyridin-2-yl}oxy)piperidin-1-yl]methyl}-1-[(1-ethyl-1H-imidazol-5-yl)methyl]-1H-1,3-benzodiazole-6-carboxylic acid] |
| < 50 nM | N#Cc1cc(F)ccc1OCc1nccc(OC2CCN(Cc3nc4ccc(C(=O)O)cc4n3C[C@@H]3CCO3)CC2)n1 [Compound 306] |
| < 50 nM | CCn1cncc1Cn1c(CN2CCC(CF)(Cc3ccnc(COc4ccc(Cl)cc4Cl)c3)CC2)nc2ccc(C(=O)O)cc21 [Example 164, 2-((4-((2-((2,4-Dichlorophenoxy)methyl)pyridin-4-yl)methyl)-4-(fluoromethyl)piperidin-1-yl)methyl)-1-((1-ethyl-1H-imidazol-5-yl)methyl)-1H-benzo[d]imidazole-6-carboxylic acid] |
| < 50 nM | CCn1cncc1Cn1c(CN2CCC(Oc3cccc(COc4ccc(Cl)cc4C#N)c3)CC2)nc2ccc(C(=O)O)cc21 [Compound 215, 2-[(4-{3-[(4-chloro-2-cyanophenoxy)methyl]phenoxy}piperidin-1-yl)methyl]-1-[(1-ethyl-1H-imidazol-5-yl)methyl]-1H-1,3-benzodiazole-6-carboxylic acid] |
| < 50 nM | O=C(O)c1ccc2nc(CN3CCC(Oc4ccnc(COc5cc(F)c(F)cc5F)n4)CC3)n(C[C@@H]3CCO3)c2c1 [Compound 495, 1-{[(2S)-oxetan-2-yl]methyl}-2-{[4-({2-[(2,4,5-trifluorophenoxy)methyl]pyrimidin-4-yl}oxy)piperidin-1-yl]methyl}-1H-1,3-benzodiazole-6-carboxylic acid] |
| < 50 nM | N#Cc1ccc(OCc2nccc(OC3CCN(Cc4nc5ncc(C(=O)O)cc5n4C[C@@H]4CCO4)CC3)n2)c(F)c1 [Example 486, (S)-2-((4-((2-((4-Cyano-2-fluorophenoxy)methyl)pyrimidin-4-yl)oxy)piperidin-1-yl)methyl)-1-(oxetan-2-ylmethyl)-1H-imidazo[4,5-b]pyridine-6-carboxylic acid] |
| < 50 nM | O=C(O)c1ccc2nc(CN3CCC(Oc4cccc(COc5ccc(Cl)cc5Cl)c4)CC3)n(C[C@@H]3CCO3)c2c1F [Compound 224, 2-[(4-{3-[(2,4-dichlorophenoxy)methyl]phenoxy}piperidin-1-yl)methyl]-7-fluoro-1-{[(2S)-oxetan-2-yl]methyl}-1H-1,3-benzodiazole-6-carboxylic acid] |

Source: patent US20230089073A1 (Carmot Therapeutics, Inc., priority 2021, published 2023)
